Key:
endogenous BRD4 = target: T1, endogenous BRD4 (Mus musculus, UniProt Q9ESU6); experiment: Immunoblot of endogenous BRD4 in mice liver tissue; assay type: in vivo, FVB mice; conditions: 50 mg/kg MZ1 i.p., FIG. 21
T1 construct: Immunoblot analysis of endogenous long isoform BRD4 (BRD4L) after 50 mg/kg MZ1 treatment i.p; from tissue; host or cells: liver of FVB mice (AAV-infected, MZ1-treated)
Excerpt: (§1) Immunoblots and RT-qPCR. Mice liver tissues or culture cells were lysed in RIPA buffer (Abcam no. ab156034) supplemented with phosphatase inhibitor (Thermo Fisher Scientific no. PIA32957) and protease inhibitors (Fishers cientific no. A32965). Lysates were resolved by 10% Tris-glycine SDS-PAGE, transferred to PVDF membrane (Bio-Rad no. 1620177), and blotted with antibodies BRD4 (Abcam, ab128874), GAPDH (Cell Signaling Technology, 2118L), luciferase (ABclonal, requested), Ran (ABclonal, A0976), Hsp90 (Cell Signaling Technology, 4874). Images were acquired using LumiQuant AC600 (Acuronbio Technology Inc), quantification analysis was processed by ImageJ software. Trizol reagent (Sigma no. T9424) was used to extract total RNA from liver. RNAs were purified using RNeasy Mini kit (QIAGEN no. 4106). The quality and concentration of total RNA were checked on NanoDrop™ 2000/2000c Spectrophotometers (Thermo Fisher Scientific no. ND2000LAPTOP). Reverse transcription of total RNA was performed using a Applied Biosystems™ High-Capacity cDNA Reverse Transcription Kit (Thermo Fisher Scientific no. 4368813) and qPCR was conducted with SYBR Green Master Mix (Abclonal no. RK21203) on QuantStudio 6 Real-time PCR system (Thermo Fisher Scientific).
(§2) AAV production and Mouse for in vivo delivery. […] FVB mice were purchased from the Jackson Laboratory.

[1] = system: luciferase expression in the liver of FVB mice injected with Virus a and Virus b; experiment: In vivo PROTAC-CID gene activation via AAV, IVIS bioluminescence imaging
Experimental: as §2
IVIS imaging system and quantification. Luciferase […] intensity was measured by the IVIS imaging system (PerkinElmer). Mice were anesthetized with a mixture of isoflurane and oxygen. and then intraperitoneally (i.p.) injected with D-luciferin (15 mg/ml, GoldBio no. LUCNA-100). 5 mins after the D-luciferin injection, mice were imaged with IVIS imaging system. Quantitative analysis of imaging signals (luminescence counts) was processed by Living Imaging software (PerkinElmer).

[2] = after MZ1 administration, FIG. 23
[3] = system: endogenous BRD4 (BRD4S, BRD4L); experiment: Immunoblot of endogenous BRD4 in HEK293T cells; assay type: cell-based, human; conditions: MZ1 20 nM and 100 nM, 48 h, HEK293T with MZ1 PROTAC-CID, FIG. 22
Excerpt: as §1

[4] = system: pUAS-2-driven Fluc in HEK293T cells co-infected with Virus a and Virus b; experiment: AAV infection of HEK293T cells, luciferase bioluminescence; assay type: cell-based, human; conditions: 100 nM MZ1, three days post-infection, FIG. 4B
Experimental: AAV infection on HEK293T cells. Before infection, HEK293T cells were seeded into 96 well plates (Corning no. 3610). When the confluency reaching 50%, 1 μL of each purified AAV virus (Virus a and Virus b in FIGS. 4 and 19) were added into the supernatant of HEK293T cells. 100 nM of MZ1 or DMSO was added into the supernatant. Three days post-infection, cells with 80 μL medium were treated with 40 μL lysis buffer (500 mM DTT, 10 mM coenzyme A, 100 mM ATP, 80 mg/mL D-luciferin, Triton lysis buffer (0.1082 M Tris-HCl, 0.0419 M Tris-Base, 75 mM NaCl, 3 mM MgCl2)). To lysis the cells Plate was shaken by plate reader Infinite M200 (TECAN) with 20 seconds in “Orbital” mode with frequency of 432 rpm and Amplitude of 1 mm. Relative light units of luminescence was recorded by plate reader Infinite M200 (TECAN) with 1000 ms integration time using Megellan v1.7 (TECAN).

[5] = system: three different genomic sites in HEK293T cells; experiment: Inducible C-to-T base editing by A3G5.13 (Sanger sequencing, EditR); assay type: cell-based, human; conditions: CBE A3G5.13 with dTAG-13 PROTAC-CID, 100 nM dTAG-13, 3 days, across three genomic sites, FIG. 3C
Experimental: Base editing measurement. Before transfection, HEK293T cells were plated into 96 well plates (Corning no. 3598) with 20% confluency. 0.5 μL Lipofectamine 2000 (Life Technology no. 11661089) was mixed with 25 μL DMEM for 5 mins incubation. 80 ng to 210 ng Plasmids (See Table 1 for plasmid dosage used in each condition) were then mixed with 25 μL DMEM and added into the Lipofectamine 2000 and DMEM mixture for 20 min incubation at the room temperature. Mixture was added into cells gently. After 12 h, supernatants were changed with fresh 10% FBS (Thermo Fisher Scientific no. 10437028) DMEM medium (Thermo Fisher Scientific no. 10569044), Puromycin (10 μg/mL Thermo Fisher Scientific no. A1113803) and supplied with 100 nM dTAG-13 (TOCRIS no. 6605/5) or DMSO (Sigma, no. D8418). After 3 days, cell medium was removed and cells were treated with 100 μL lysis buffer (10 mM tris-HCl (pH=7.5), 0.05% SDS, and proteinase K (25 μg/mL, Thermo Fisher Scientific no. 01169965)) followed by 37° C. 1 h, 58° C. 30 min and inactivated at 95° C. for 20 min. The cell lysis was amplified by 2×Phanta Max Master Mix (Vazyme no. p515) following the program: 95° C. 3 min, 95° C. 15s and 58° C. 15s with 72° C. for 35 cycles, and 72° C. 5 min. The editing efficiency was measured by Sanger sequencing and analyzed by EditR (https://moriaritylab.shinyapps.io/editr_v10/) (Kluesner et al., 2018).

Compound | expression of BRD4 in mice liver tissue (endogenous BRD4) | increase of the luciferase expression in the liver compared with the group without MZ1 ([1]; 10 mg/kg MZ1 intraperitoneally, 25 days after AAV, imaging 6 h post-MZ1, FIG. 4E) [fold] | Fluc expression after second MZ1 injection ([1]; second injection ten days after the first, 50 mg/kg i.p., FIGS. 4G and 4H) | abnormality or body weight change [2] | degradation of endogenous BRD4 isoforms [3] | increase in luciferase bioluminescence intensity [4] | C-to-T editing [5]
Cc1ncsc1-c1ccc(CNC(=O)[C@@H]2C[C@@H](O)CN2C(=O)[C@@H](NC(=O)COCCOCCOCCNC(=O)C[C@@H]2N=C(c3ccc(Cl)cc3)c3c(sc(C)c3C)-n3c(C)nnc32)C(C)(C)C)cc1 [MZ1] | did not observe a significant change in the expression of BRD4 | ~7 | elevated expression of Fluc with a comparable gene activation level as the first administration | no abnormality or body weight change | only observed the degradation of the short isoform of BRD4 (BRD4S), not the conventional long isoform BRD4 (BRD4L) | more than 60 fold | –
CC[C@H](C(=O)N1CCCC[C@H]1C(=O)O[C@H](CCc1ccc(OC)c(OC)c1)c1ccccc1OCC(=O)NCCCCCCOc1cccc2c1C(=O)N(C1CCC(=O)NC1=O)C2=O)c1cc(OC)c(OC)c(OC)c1 (stereo partly shown) [dTAG-13] | – | – | – | – | – | – | 30-50%

Source: patent publication US20250382631A1, “PROTAC-CID SYSTEMS FOR USE IN MULTIPLEX GENE REGULATION” (William Marsh Rice University, priority 2022, published 2025)
